What was measured:
Assay in all cases: KINOMEscan competition binding
Conditions in all cases: compound 10.0 µM
NIM1 (human) = NIM1 (human) (UniProt Q8IY84)
GRK1 (human) = GRK1 (human) (UniProt Q15835)
DYRK1A (human) = DYRK1A (human) (UniProt Q13627)
MYLK3 (human) = MYLK3 (human) (UniProt Q32MK0)
[1] = test system: EGFR (human), P00533 [746-750 del]
CPK1 (P.falciparum) = test system: CPK1 (P.falciparum)
PLK2 (human) = PLK2 (human) (UniProt Q9NYY3)
TAOK2 (human) = TAOK2 (human) (UniProt Q9UL54)
PIK3CG (human) = PIK3CG (human) (UniProt P48736)
[2] = test system: EGFR (human), P00533 [G719S]
MAP3K15 (human) = MAP3K15 (human) (UniProt Q6ZN16)
CRK2 (P.falciparum) = CRK2 (P.falciparum) (UniProt P61075)
Sequence of CRK2 (P.falciparum) (P61075 whole entry, looked up): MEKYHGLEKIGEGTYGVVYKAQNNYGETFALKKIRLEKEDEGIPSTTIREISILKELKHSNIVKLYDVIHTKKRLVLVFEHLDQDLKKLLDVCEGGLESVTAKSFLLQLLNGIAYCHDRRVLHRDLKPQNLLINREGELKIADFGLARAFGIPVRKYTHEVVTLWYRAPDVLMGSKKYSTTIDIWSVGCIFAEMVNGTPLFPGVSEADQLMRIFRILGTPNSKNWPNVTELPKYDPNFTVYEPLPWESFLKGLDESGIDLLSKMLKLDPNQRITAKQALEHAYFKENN

[3] = test system: EGFR (human), P00533 [P753S; 747-752 del]
SIK3 (human) = SIK3 (human) (UniProt Q9Y2K2)
PIK3C2G (human) = PIK3C2G (human) (UniProt O75747)
CDK2 (human) = CDK2 (human) (UniProt P24941)
KIT (human) = KIT (human) (UniProt P10721)
Sequence of KIT (human) (P10721 whole entry, looked up): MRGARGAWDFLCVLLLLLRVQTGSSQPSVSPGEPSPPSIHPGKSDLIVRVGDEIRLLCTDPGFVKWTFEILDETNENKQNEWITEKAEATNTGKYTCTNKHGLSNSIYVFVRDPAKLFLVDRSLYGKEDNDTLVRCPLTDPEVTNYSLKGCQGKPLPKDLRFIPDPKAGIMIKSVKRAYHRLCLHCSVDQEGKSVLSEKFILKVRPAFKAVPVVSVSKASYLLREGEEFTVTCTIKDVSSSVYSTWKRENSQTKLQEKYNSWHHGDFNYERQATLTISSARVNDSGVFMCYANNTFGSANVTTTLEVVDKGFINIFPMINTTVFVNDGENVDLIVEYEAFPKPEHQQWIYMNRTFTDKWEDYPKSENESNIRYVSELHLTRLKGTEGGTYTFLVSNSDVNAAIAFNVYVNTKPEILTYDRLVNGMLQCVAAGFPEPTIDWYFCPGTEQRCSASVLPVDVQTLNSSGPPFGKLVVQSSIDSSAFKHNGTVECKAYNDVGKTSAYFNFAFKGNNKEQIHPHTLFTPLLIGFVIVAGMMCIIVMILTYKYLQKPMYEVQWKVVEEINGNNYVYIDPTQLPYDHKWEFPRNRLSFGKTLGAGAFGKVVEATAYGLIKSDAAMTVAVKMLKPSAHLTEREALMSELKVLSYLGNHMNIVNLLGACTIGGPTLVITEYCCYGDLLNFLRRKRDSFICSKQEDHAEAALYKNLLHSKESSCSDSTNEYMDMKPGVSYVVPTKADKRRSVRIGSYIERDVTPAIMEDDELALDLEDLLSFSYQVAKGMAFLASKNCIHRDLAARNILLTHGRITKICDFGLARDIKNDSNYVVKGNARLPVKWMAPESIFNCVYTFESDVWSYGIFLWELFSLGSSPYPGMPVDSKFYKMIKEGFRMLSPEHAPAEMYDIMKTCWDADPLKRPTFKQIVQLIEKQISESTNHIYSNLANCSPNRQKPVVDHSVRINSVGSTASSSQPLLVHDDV

[4] = test system: PIK3CA (human), P42336 [C420R]
CDK4 CCND3 (human) = CDK4 CCND3 (human) (UniProt P11802+P30281)
Sequence of CDK4 CCND3 (human) (P11802 whole entry, looked up): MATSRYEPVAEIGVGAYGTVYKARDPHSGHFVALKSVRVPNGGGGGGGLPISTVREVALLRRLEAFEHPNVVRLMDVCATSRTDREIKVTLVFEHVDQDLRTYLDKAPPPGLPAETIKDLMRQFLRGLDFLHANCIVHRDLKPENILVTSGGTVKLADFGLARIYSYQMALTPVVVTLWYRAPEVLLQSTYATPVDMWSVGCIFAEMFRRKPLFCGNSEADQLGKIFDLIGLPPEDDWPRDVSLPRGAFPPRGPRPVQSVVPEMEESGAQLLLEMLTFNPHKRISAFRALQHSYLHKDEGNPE
Sequence of CDK4 CCND3 (human) (P30281 whole entry, looked up): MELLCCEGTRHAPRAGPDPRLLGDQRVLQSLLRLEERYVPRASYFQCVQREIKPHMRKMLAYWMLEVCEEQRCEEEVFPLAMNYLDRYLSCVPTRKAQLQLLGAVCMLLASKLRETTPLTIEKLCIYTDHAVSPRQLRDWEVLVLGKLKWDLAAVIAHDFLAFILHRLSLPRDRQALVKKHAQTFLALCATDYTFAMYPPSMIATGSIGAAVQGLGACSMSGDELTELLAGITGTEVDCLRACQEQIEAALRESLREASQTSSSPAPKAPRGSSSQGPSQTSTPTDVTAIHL

[5] = test system: PIK3CA (human), P42336 [Q546K]
[6] = test system: PIK3CA (human), P42336 [I800L]
Sequence of PIK3CA (human), P42336 [I800L] (P42336 whole entry I800L, looked up): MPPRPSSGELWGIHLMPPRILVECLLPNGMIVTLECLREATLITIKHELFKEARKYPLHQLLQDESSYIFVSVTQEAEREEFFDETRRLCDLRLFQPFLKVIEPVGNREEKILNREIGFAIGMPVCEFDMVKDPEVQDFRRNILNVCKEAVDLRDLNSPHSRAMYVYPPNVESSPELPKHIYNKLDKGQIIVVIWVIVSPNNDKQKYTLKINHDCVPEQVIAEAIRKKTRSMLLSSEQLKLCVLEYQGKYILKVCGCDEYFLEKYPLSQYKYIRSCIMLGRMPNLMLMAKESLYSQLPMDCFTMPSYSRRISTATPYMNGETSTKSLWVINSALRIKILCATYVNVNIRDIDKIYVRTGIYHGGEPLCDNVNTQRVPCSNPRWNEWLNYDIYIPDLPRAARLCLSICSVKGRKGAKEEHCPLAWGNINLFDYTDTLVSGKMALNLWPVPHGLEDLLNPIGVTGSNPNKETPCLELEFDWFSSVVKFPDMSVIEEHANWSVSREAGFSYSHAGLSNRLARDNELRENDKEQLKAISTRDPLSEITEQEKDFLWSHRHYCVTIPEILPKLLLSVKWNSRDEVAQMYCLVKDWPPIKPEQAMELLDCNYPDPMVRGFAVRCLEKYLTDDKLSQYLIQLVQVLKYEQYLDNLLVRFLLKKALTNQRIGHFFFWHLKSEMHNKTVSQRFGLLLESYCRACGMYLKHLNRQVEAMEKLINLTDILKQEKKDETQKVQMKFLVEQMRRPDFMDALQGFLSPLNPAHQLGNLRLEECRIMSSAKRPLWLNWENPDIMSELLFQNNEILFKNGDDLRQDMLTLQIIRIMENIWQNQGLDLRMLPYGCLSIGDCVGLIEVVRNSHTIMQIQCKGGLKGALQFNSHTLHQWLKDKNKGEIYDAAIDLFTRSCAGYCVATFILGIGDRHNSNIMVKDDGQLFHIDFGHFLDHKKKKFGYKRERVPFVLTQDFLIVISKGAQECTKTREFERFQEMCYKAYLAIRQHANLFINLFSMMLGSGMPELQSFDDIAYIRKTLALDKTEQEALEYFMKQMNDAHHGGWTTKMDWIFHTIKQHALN

MET (human) = MET (human) (UniProt P08581)
EGFR (human) = EGFR (human) (UniProt P00533)
YSK4 (human) = YSK4 (human) (UniProt Q56UN5)
[7] = test system: PIK3CA (human), P42336 [H1047Y]
PRKCI (human) = PRKCI (human) (UniProt P41743)
CDK13 (human) = CDK13 (human) (UniProt Q14004)
[8] = test system: KIT (human), P10721 [V559D/T670I]
MAP3K13 (human) = MAP3K13 (human) (UniProt O43283)
SGK3 (human) = SGK3 (human) (UniProt Q96BR1)
Sequence of SGK3 (human) (Q96BR1 whole entry, looked up): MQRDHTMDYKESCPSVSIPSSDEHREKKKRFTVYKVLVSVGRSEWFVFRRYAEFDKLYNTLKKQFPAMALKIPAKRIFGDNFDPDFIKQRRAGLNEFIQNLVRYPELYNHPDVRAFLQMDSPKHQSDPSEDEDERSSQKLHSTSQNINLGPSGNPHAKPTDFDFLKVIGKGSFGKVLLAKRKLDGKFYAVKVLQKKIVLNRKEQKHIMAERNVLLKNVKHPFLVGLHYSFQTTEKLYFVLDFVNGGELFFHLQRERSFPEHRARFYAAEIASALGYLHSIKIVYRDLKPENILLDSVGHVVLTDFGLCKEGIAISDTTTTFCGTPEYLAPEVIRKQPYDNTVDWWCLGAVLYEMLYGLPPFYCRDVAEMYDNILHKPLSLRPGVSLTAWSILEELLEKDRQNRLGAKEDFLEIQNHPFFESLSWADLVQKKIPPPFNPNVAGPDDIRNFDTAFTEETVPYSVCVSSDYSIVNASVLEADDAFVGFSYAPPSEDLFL

[9] = test system: ABL1 (human), P00519 [E255K]
HIPK2 (human) = HIPK2 (human) (UniProt Q9H2X6)
[10] = test system: EGFR (human), P00533 [L861Q]
GRK4 (human) = GRK4 (human) (UniProt P32298)
VRK2 (human) = VRK2 (human) (UniProt Q86Y07)
IRAK4 (human) = IRAK4 (human) (UniProt Q9NWZ3)
Sequence of IRAK4 (human) (Q9NWZ3 whole entry, looked up): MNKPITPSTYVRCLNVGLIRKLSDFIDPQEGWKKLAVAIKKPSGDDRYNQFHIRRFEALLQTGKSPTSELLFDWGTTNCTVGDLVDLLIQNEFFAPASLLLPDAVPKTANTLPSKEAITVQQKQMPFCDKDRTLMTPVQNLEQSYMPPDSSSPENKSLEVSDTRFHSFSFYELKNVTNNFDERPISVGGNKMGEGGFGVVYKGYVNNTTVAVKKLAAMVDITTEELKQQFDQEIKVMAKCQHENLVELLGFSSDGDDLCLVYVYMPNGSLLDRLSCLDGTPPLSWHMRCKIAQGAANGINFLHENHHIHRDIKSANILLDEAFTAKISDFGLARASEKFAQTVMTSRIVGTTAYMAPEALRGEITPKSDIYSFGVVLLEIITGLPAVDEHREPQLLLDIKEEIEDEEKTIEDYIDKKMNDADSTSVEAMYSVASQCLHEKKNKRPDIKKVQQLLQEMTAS

MAP3K1 (human) = MAP3K1 (human) (UniProt Q13233)
MAP3K2 (human) = MAP3K2 (human) (UniProt Q9Y2U5)
STK39 (human) = STK39 (human) (UniProt Q9UEW8)

Sequence of GRK1 (human) (Q15835 whole entry, looked up): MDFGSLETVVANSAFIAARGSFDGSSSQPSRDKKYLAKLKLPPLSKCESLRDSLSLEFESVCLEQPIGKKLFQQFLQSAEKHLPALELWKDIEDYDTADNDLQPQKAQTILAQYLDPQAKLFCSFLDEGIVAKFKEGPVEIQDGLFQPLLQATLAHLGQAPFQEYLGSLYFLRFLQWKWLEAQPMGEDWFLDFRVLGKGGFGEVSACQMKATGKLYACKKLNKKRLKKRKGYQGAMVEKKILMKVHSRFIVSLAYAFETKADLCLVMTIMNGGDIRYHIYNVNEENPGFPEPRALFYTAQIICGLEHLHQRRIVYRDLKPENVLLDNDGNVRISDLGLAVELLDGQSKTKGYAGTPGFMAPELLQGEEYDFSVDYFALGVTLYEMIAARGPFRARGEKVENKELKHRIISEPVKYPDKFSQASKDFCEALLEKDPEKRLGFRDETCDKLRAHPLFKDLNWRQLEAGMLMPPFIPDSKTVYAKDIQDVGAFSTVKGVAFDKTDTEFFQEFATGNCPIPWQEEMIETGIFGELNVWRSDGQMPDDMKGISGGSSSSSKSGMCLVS
Sequence of NIM1 (human) (Q8IY84 whole entry, looked up): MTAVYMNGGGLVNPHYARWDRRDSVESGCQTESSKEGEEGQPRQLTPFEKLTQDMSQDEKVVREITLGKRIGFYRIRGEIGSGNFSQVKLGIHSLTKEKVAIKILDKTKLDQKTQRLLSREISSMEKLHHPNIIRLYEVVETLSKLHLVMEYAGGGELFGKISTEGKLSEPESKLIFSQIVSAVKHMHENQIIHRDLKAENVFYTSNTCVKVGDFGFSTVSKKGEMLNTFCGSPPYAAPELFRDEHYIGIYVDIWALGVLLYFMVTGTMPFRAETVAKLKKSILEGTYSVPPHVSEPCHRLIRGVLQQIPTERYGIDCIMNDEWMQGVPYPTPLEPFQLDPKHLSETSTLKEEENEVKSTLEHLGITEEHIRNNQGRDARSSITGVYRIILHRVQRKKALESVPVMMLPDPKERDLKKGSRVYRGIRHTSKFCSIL

Row | Structure (SMILES) | kinase still bound, per cent of control (NIM1 (human)) | kinase still bound, per cent of control (GRK1 (human)) | kinase still bound, per cent of control (DYRK1A (human)) | kinase still bound, per cent of control (MYLK3 (human)) | kinase still bound, per cent of control [1] | kinase still bound, per cent of control (CPK1 (P.falciparum)) | kinase still bound, per cent of control (PLK2 (human)) | kinase still bound, per cent of control (TAOK2 (human)) | kinase still bound, per cent of control (PIK3CG (human)) | kinase still bound, per cent of control [2] | kinase still bound, per cent of control (MAP3K15 (human)) | kinase still bound, per cent of control (CRK2 (P.falciparum)) | kinase still bound, per cent of control [3] | kinase still bound, per cent of control (SIK3 (human)) | kinase still bound, per cent of control (PIK3C2G (human)) | kinase still bound, per cent of control (CDK2 (human)) | kinase still bound, per cent of control (KIT (human)) | kinase still bound, per cent of control [4] | kinase still bound, per cent of control (CDK4 CCND3 (human)) | kinase still bound, per cent of control [5] | further results
1 | O=C(NC1CC1)c1cccc(-c2ccc3c(NC(=O)C4CC4)n[nH]c3c2)c1 | 100% | 100% | 98% | 46% | 90% | 18% | 88% | 20% | 90% | 85% | 100% | 100% | 96% | 100% | 100% | 3.4% | 37% | 100% | 82% | 98% | kinase still bound, per cent of control [6]: 100%; kinase still bound, per cent of control (MET (human)): 75%; kinase still bound, per cent of control (EGFR (human)): 96%; kinase still bound, per cent of control (YSK4 (human)): 5.9%; kinase still bound, per cent of control [7]: 89%; kinase still bound, per cent of control (PRKCI (human)): 74%; kinase still bound, per cent of control (CDK13 (human)): 82%; kinase still bound, per cent of control [8]: 43%; kinase still bound, per cent of control (MAP3K13 (human)): 64%; kinase still bound, per cent of control (SGK3 (human)): 42%; kinase still bound, per cent of control [9]: 55%; kinase still bound, per cent of control (HIPK2 (human)): 36%; kinase still bound, per cent of control [10]: 69%; kinase still bound, per cent of control (GRK4 (human)): 14%; kinase still bound, per cent of control (VRK2 (human)): 100%; kinase still bound, per cent of control (IRAK4 (human)): 88%; kinase still bound, per cent of control (MAP3K1 (human)): 100%; kinase still bound, per cent of control (MAP3K2 (human)): 63%; kinase still bound, per cent of control (STK39 (human)): 99%
2 | C=CC(=O)Nc1cc(NC(=O)c2ccc(C)c(NC(=O)c3ccno3)c2)cc(C(F)(F)F)c1 | 98% | 86% | 99% | 91% | 81% | 94% | 100% | 87% | 76% | 100% | 77% | 98% | 79% | 82% | 100% | 100% | 4.7% | 82% | 95% | 78% | kinase still bound, per cent of control [6]: 93%; kinase still bound, per cent of control (MET (human)): 100%; kinase still bound, per cent of control (EGFR (human)): 79%; kinase still bound, per cent of control (YSK4 (human)): 74%; kinase still bound, per cent of control [7]: 95%; kinase still bound, per cent of control (PRKCI (human)): 100%; kinase still bound, per cent of control (CDK13 (human)): 100%; kinase still bound, per cent of control [8]: 77%; kinase still bound, per cent of control (MAP3K13 (human)): 98%; kinase still bound, per cent of control (SGK3 (human)): 100%; kinase still bound, per cent of control [9]: 86%; kinase still bound, per cent of control (HIPK2 (human)): 86%; kinase still bound, per cent of control [10]: 100%; kinase still bound, per cent of control (GRK4 (human)): 100%; kinase still bound, per cent of control (VRK2 (human)): 100%; kinase still bound, per cent of control (IRAK4 (human)): 99%; kinase still bound, per cent of control (MAP3K1 (human)): 94%; kinase still bound, per cent of control (MAP3K2 (human)): 100%; kinase still bound, per cent of control (STK39 (human)): 86%
3 | C=CC(=O)Nc1cccc(Nc2nc(N[C@H]3CC[C@H](N(C)C)CC3)nc3c2ncn3C(C)C)c1 | 66% | 47% | 20% | 100% | 88% | 98% | 52% | 66% | 100% | 98% | 66% | 100% | 90% | 92% | 100% | 100% | 52% | 89% | 23% | 100% | kinase still bound, per cent of control [6]: 100%; kinase still bound, per cent of control (MET (human)): 100%; kinase still bound, per cent of control (EGFR (human)): 100%; kinase still bound, per cent of control (YSK4 (human)): 15%; kinase still bound, per cent of control [7]: 90%; kinase still bound, per cent of control (PRKCI (human)): 93%; kinase still bound, per cent of control (CDK13 (human)): 40%; kinase still bound, per cent of control [8]: 86%; kinase still bound, per cent of control (MAP3K13 (human)): 79%; kinase still bound, per cent of control (SGK3 (human)): 85%; kinase still bound, per cent of control [9]: 70%; kinase still bound, per cent of control (HIPK2 (human)): 17%; kinase still bound, per cent of control [10]: 100%; kinase still bound, per cent of control (GRK4 (human)): 43%; kinase still bound, per cent of control (VRK2 (human)): 11%; kinase still bound, per cent of control (IRAK4 (human)): 2.5%; kinase still bound, per cent of control (MAP3K1 (human)): 100%; kinase still bound, per cent of control (MAP3K2 (human)): 0.2%; kinase still bound, per cent of control (STK39 (human)): 51%
